# Reference: ChEMBL document CHEMBL1275440, “In vitro activity of telavancin against resistant gram-positive bacteria” (2008)
# The source made the active and inactive calls. No cut-off for these calls is given here.
# Columns and labels:
# [1] = tested on: Staphylococcus haemolyticus; test: Antibacterial activity against methicillin resistant coagulase-negative Staphylococcus haemolyticus clinical isolate by broth microdilution method; assay type: functional
# Streptococcus pneumoniae [2] = test: Antibacterial activity against multidrug-resistant Streptococcus pneumoniae clinical isolate by broth microdilution method; assay type: functional
# [3] = tested on: Staphylococcus epidermidis; test: Antibacterial activity against methicillin resistant Staphylococcus epidermidis clinical isolate assessed as susceptibility level by broth microdilution method; assay type: functional
# [4] = tested on: Staphylococcus auricularis; test: Antibacterial activity against methicillin resistant coagulase-negative Staphylococcus auricularis clinical isolate by broth microdilution method; assay type: functional
# Streptococcus agalactiae [5] = test: Antibacterial activity against Streptococcus agalactiae group B clinical isolate by broth microdilution method; assay type: functional
# Streptococcus agalactiae [6] = test: Antibacterial activity against Streptococcus agalactiae group B clinical isolate assessed as susceptibility level by broth microdilution method; assay type: functional
# Streptococcus mitis [7] = test: Antibacterial activity against Streptococcus mitis clinical isolate assessed as susceptibility level by broth microdilution method; assay type: functional
# [8] = tested on: Staphylococcus epidermidis; test: Antibacterial activity against methicillin resistant Staphylococcus epidermidis clinical isolate by broth microdilution method; assay type: functional
# Enterococcus faecalis [9] = tested on: Enterococcus faecalis
# [10] = tested on: Streptococcus constellatus; test: Antibacterial activity against Streptococcus constellatus clinical isolate by broth microdilution method; assay type: functional
# Streptococcus pyogenes [11] = test: Antibacterial activity against Streptococcus pyogenes group A clinical isolate assessed as susceptibility level by broth microdilution method; assay type: functional
# Enterococcus faecalis [12] = test: Antibacterial activity against vancomycin resistant Enterococcus faecalis VanB clinical isolate by broth microdilution method; assay type: functional
# Streptococcus viridans [13] = test: Antibacterial activity against Streptococcus viridans clinical isolate by broth microdilution method; assay type: functional
# Enterococcus faecalis [14] = test: Antibacterial activity against vancomycin resistant Enterococcus faecalis VanA clinical isolate by broth microdilution method; assay type: functional
# Streptococcus viridans [15] = test: Antibacterial activity against Streptococcus viridans clinical isolate assessed as susceptibility level by broth microdilution method; assay type: functional
# Staphylococcus aureus [16] = test: Antibacterial activity against methicillin resistant Staphylococcus aureus clinical isolate by broth microdilution method; assay type: functional; conditions: for MIC50 / MIC90: Staphylococcus aureus
# Streptococcus oralis [17] = test: Antibacterial activity against Streptococcus oralis clinical isolate assessed as susceptibility level by broth microdilution method; assay type: functional
# Enterococcus faecium [18] = test: Antibacterial activity against vancomycin resistant Enterococcus faecium VanB clinical isolate assessed as susceptibility level by broth microdilution method; assay type: functional
# Staphylococcus capitis [19] = test: Antibacterial activity against methicillin resistant coagulase-negative Staphylococcus capitis clinical isolate by broth microdilution method; assay type: functional
# [20] = tested on: Staphylococcus saprophyticus; test: Antibacterial activity against methicillin resistant coagulase-negative Staphylococcus saprophyticus clinical isolate assessed as susceptibility level by broth microdilution method; assay type: functional
# Enterococcus faecalis [21] = test: Antibacterial activity against vancomycin resistant Enterococcus faecalis VanA clinical isolate assessed as susceptibility level by broth microdilution method; assay type: functional
# [22] = tested on: Staphylococcus haemolyticus; test: Antibacterial activity against methicillin resistant coagulase-negative Staphylococcus haemolyticus clinical isolate assessed as susceptibility level by broth microdilution method; assay type: functional
# [23] = tested on: Streptococcus constellatus; test: Antibacterial activity against Streptococcus constellatus clinical isolate assessed as susceptibility level by broth microdilution method; assay type: functional
# Streptococcus pneumoniae [24] = test: Antibacterial activity against penicillin resistant Streptococcus pneumoniae clinical isolate by broth microdilution method; assay type: functional
# Streptococcus pneumoniae [25] = test: Antibacterial activity against penicillin intermediate Streptococcus pneumoniae clinical isolate by broth microdilution method; assay type: functional
# Streptococcus mitis [26] = test: Antibacterial activity against Streptococcus mitis clinical isolate by broth microdilution method; assay type: functional
# Enterococcus faecium [27] = test: Antibacterial activity against vancomycin resistant Enterococcus faecium VanA clinical isolate assessed as susceptibility level by broth microdilution method; assay type: functional
# Staphylococcus aureus [28] = test: Antibacterial activity against methicillin resistant Staphylococcus aureus clinical isolate assessed as susceptibility level by broth microdilution method; assay type: functional
# Enterococcus faecium [29] = test: Antibacterial activity against vancomycin resistant Enterococcus faecium VanA clinical isolate by broth microdilution method; assay type: functional
# [30] = Antibacterial activity against methicillin resistant coagulase-negative Staphylococcus hominis subsp. novobiosepticus clinical isolate by broth microdilution method; assay type: functional
# Streptococcus oralis [31] = test: Antibacterial activity against Streptococcus oralis clinical isolate by broth microdilution method; assay type: functional
# Enterococcus faecium [32] = test: Antibacterial activity against vancomycin resistant Enterococcus faecium VanB clinical isolate by broth microdilution method; assay type: functional
# [33] = Antibacterial activity against methicillin resistant coagulase-negative Staphylococcus hominis subsp. novobiosepticus clinical isolate assessed as susceptibility level by broth microdilution method; assay type: functional
# [34] = tested on: Staphylococcus auricularis; test: Antibacterial activity against methicillin resistant coagulase-negative Staphylococcus auricularis clinical isolate assessed as susceptibility level by broth microdilution method; assay type: functional
# Streptococcus pyogenes [35] = test: Antibacterial activity against Streptococcus pyogenes group A clinical isolate by broth microdilution method; assay type: functional
# Enterococcus faecalis [36] = test: Antibacterial activity against vancomycin resistant Enterococcus faecalis VanB clinical isolate assessed as susceptibility level by broth microdilution method; assay type: functional
# [37] = tested on: Streptococcus intermedius; test: Antibacterial activity against Streptococcus intermedius clinical isolate by broth microdilution method; assay type: functional
# [38] = tested on: Streptococcus intermedius; test: Antibacterial activity against Streptococcus intermedius clinical isolate assessed as susceptibility level by broth microdilution method; assay type: functional
# Staphylococcus capitis [39] = test: Antibacterial activity against methicillin resistant coagulase-negative Staphylococcus capitis clinical isolate assessed as susceptibility level by broth microdilution method; assay type: functional
# [40] = tested on: Staphylococcus saprophyticus; test: Antibacterial activity against methicillin resistant coagulase-negative Staphylococcus saprophyticus clinical isolate by broth microdilution method; assay type: functional
# [41] = tested on: Staphylococcus epidermidis; test: Antibacterial activity against methicillin resistant Staphylococcus epidermidis ATCC 35984 by broth microdilution method; assay type: functional
# Streptococcus pyogenes [42] = test: Antibacterial activity against Streptococcus pyogenes MED 2040 by broth microdilution method; assay type: functional
# Streptococcus agalactiae [43] = test: Antibacterial activity against Streptococcus agalactiae MED 2038 by broth microdilution method; assay type: functional
# Streptococcus pneumoniae [44] = test: Antibacterial activity against penicillin intermediate Streptococcus pneumoniae clinical isolate assessed as susceptibility level by broth microdilution method; assay type: functional
structure (smiles),measurement,setting,value
CCCCCCCCCC(=O)N[C@@H](Cc1c[nH]c2ccccc12)C(=O)N[C@H](CC(N)=O)C(=O)N[C@@H](CC(=O)O)C(=O)N[C@@H]1C(=O)NCC(=O)N[C@@H](CCCN)C(=O)N[C@@H](CC(=O)O)C(=O)N[C@H](C)C(=O)N[C@@H](CC(=O)O)C(=O)NCC(=O)N[C@H](CO)C(=O)N[C@@H]([C@H](C)CC(=O)O)C(=O)N[C@@H](CC(=O)c2ccccc2N)C(=O)O[C@@H]1C,MIC50,[1],0.25 µg/mL
same,MIC90,[1],1 µg/mL
same,MIC50,Streptococcus pneumoniae [2],0.12 µg/mL
same,MIC90,Streptococcus pneumoniae [2],0.12 µg/mL
same,Activity,[3],100%
same,MIC50,[4],0.25 µg/mL
same,MIC90,[4],1 µg/mL
same,MIC50,Streptococcus agalactiae [5],0.25 µg/mL
same,MIC90,Streptococcus agalactiae [5],0.25 µg/mL
same,Activity,Streptococcus agalactiae [6],100%
same,Activity,Streptococcus mitis [7],100%
same,MIC50,[8],0.5 µg/mL
same,MIC90,[8],1 µg/mL
same,MIC50,Enterococcus faecalis [9],inactive
same,MIC90,Enterococcus faecalis [9],inactive
same,MIC,[10],0.25 µg/mL
same,MIC50,[10],inactive
same,MIC90,[10],inactive
same,Activity,Streptococcus pyogenes [11],100%
same,MIC,Enterococcus faecalis [12],0.5 µg/mL
same,MIC,Streptococcus viridans [13],0.25 µg/mL
same,MIC50,Streptococcus viridans [13],inactive
same,MIC90,Streptococcus viridans [13],inactive
same,MIC50,Enterococcus faecalis [14],1 µg/mL
same,MIC90,Enterococcus faecalis [14],2 µg/mL
same,Activity,Streptococcus viridans [15],100%
same,Activity,Staphylococcus aureus [16],98%
same,MIC50,Staphylococcus aureus [16],0.25 µg/mL
same,MIC90,Staphylococcus aureus [16],0.5 µg/mL
same,Activity,Streptococcus oralis [17],100%
same,Activity,Enterococcus faecium [18],93%
same,MIC50,Staphylococcus capitis [19],0.25 µg/mL
same,MIC90,Staphylococcus capitis [19],1 µg/mL
same,Activity,[20],100%
same,Percent of isolates susceptible,Enterococcus faecalis [21],100%
same,Activity,[22],100%
same,Activity,[23],100%
same,MIC50,Streptococcus pneumoniae [24],0.12 µg/mL
same,MIC90,Streptococcus pneumoniae [24],0.12 µg/mL
same,MIC50,Streptococcus pneumoniae [25],0.12 µg/mL
same,MIC90,Streptococcus pneumoniae [25],0.5 µg/mL
same,MIC,Streptococcus mitis [26],0.25 µg/mL
same,MIC50,Streptococcus mitis [26],inactive
same,MIC90,Streptococcus mitis [26],inactive
same,Activity,Enterococcus faecium [27],98%
same,Activity,Staphylococcus aureus [28],98%
same,MIC50,Enterococcus faecium [29],2 µg/mL
same,MIC90,Enterococcus faecium [29],4 µg/mL
same,MIC50,[30],0.25 µg/mL
same,MIC90,[30],1 µg/mL
same,MIC,Streptococcus oralis [31],0.25 µg/mL
same,MIC50,Streptococcus oralis [31],inactive
same,MIC90,Streptococcus oralis [31],inactive
same,MIC50,Enterococcus faecium [32],2 µg/mL
same,MIC90,Enterococcus faecium [32],4 µg/mL
same,Activity,[33],100%
same,Activity,[34],100%
same,MIC,Streptococcus pyogenes [35],≤ 0.03 µg/mL
same,MIC50,Streptococcus pyogenes [35],≤ 0.03 µg/mL
same,MIC90,Streptococcus pyogenes [35],0.25 µg/mL
same,Activity,Enterococcus faecalis [36],100%
same,MIC,[37],0.25 µg/mL
same,MIC50,[37],inactive
same,MIC90,[37],inactive
same,Activity,[38],100%
same,Activity,Staphylococcus capitis [39],100%
same,MIC50,[40],0.25 µg/mL
same,MIC90,[40],1 µg/mL
CC(=O)NC[C@H]1CN(c2ccc(N3CCOCC3)c(F)c2)C(=O)O1 [LINEZOLID],MIC,[41],2 µg/mL
same,MIC50,[1],1 µg/mL
same,MIC90,[1],2 µg/mL
same,MIC50,Streptococcus pneumoniae [2],1 µg/mL
same,MIC90,Streptococcus pneumoniae [2],1 µg/mL
same,Activity,[3],100%
same,MIC50,[4],1 µg/mL
same,MIC90,[4],2 µg/mL
same,MIC50,Streptococcus agalactiae [5],1 µg/mL
same,MIC90,Streptococcus agalactiae [5],1 µg/mL
same,Activity,Streptococcus agalactiae [6],100%
same,Activity,Streptococcus mitis [7],100%
same,MIC50,[8],1 µg/mL
same,MIC90,[8],1 µg/mL
same,MIC50,Enterococcus faecalis [9],inactive
same,MIC90,Enterococcus faecalis [9],inactive
same,MIC,[10],0.5 µg/mL
same,MIC50,[10],inactive
same,MIC90,[10],inactive
same,Activity,Streptococcus pyogenes [11],98%
same,MIC,Enterococcus faecalis [12],0.5 µg/mL
same,MIC,Streptococcus viridans [13],0.5 µg/mL
same,MIC50,Streptococcus viridans [13],inactive
same,MIC90,Streptococcus viridans [13],inactive
same,MIC,Streptococcus pyogenes [42],1 µg/mL
same,Activity,Streptococcus viridans [15],100%
same,Activity,Staphylococcus aureus [16],99%
same,MIC50,Staphylococcus aureus [16],2 µg/mL
same,MIC90,Staphylococcus aureus [16],4 µg/mL
same,Activity,Streptococcus oralis [17],100%
same,Activity,Enterococcus faecium [18],96%
same,MIC50,Staphylococcus capitis [19],1 µg/mL
same,MIC90,Staphylococcus capitis [19],2 µg/mL
same,Activity,[20],100%
same,Activity,[22],100%
same,Activity,[23],100%
same,MIC50,Streptococcus pneumoniae [24],1 µg/mL
same,MIC90,Streptococcus pneumoniae [24],1 µg/mL
same,MIC50,Streptococcus pneumoniae [25],1 µg/mL
same,MIC90,Streptococcus pneumoniae [25],1 µg/mL
same,MIC,Streptococcus agalactiae [43],1 µg/mL
same,MIC,Streptococcus mitis [26],0.5 µg/mL
same,MIC50,Streptococcus mitis [26],inactive
same,MIC90,Streptococcus mitis [26],inactive
same,Activity,Enterococcus faecium [27],99%
same,Activity,Staphylococcus aureus [28],99%
same,MIC50,Enterococcus faecium [29],2 µg/mL
same,MIC90,Enterococcus faecium [29],2 µg/mL
same,MIC50,[30],1 µg/mL
same,MIC90,[30],2 µg/mL
same,MIC,Streptococcus oralis [31],0.5 µg/mL
same,MIC50,Streptococcus oralis [31],inactive
same,MIC90,Streptococcus oralis [31],inactive
same,MIC50,Enterococcus faecium [32],2 µg/mL
same,MIC90,Enterococcus faecium [32],2 µg/mL
same,Activity,[33],100%
same,Activity,[34],100%
same,Activity,Enterococcus faecalis [36],100%
same,MIC,[37],0.5 µg/mL
same,MIC50,[37],inactive
same,MIC90,[37],inactive
same,Activity,[38],100%
same,Activity,Streptococcus pneumoniae [44],100%
same,Activity,Staphylococcus capitis [39],100%
same,MIC50,[40],1 µg/mL
same,MIC90,[40],2 µg/mL
